The values below are quoted from earlier work in patent US20190000850A1, “COMBINATION CANCER THERAPY” (The Regents of the University of California, priority 2015, published 2019).

Data set [1] addresses cdc2 (Homo sapiens, UniProt P06493). The conditions noted are these: cited from earlier work.
Data set [2] relates to PKC. The conditions noted are these: cited from earlier work.
The target of data set [3] is T1, Chk1 (Homo sapiens, UniProt O14757).
T1 sequence (O14757 1-476): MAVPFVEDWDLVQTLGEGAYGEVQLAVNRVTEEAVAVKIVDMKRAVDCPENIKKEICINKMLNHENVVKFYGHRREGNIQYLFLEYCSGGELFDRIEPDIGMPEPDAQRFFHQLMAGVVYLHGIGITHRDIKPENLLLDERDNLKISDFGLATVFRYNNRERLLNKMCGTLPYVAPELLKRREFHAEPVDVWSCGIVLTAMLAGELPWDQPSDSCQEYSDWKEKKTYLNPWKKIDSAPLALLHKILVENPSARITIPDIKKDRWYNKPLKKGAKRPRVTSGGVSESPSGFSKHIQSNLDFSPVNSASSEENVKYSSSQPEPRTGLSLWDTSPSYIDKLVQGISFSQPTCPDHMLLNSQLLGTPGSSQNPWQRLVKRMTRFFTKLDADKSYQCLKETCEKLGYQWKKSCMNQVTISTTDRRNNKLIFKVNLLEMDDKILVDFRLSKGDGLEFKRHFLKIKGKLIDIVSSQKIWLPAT
The conditions noted are these: read-out: IC50 against primary target (Chk1); cited from earlier work.

Data set [4] has as its target Chk2 (Homo sapiens, UniProt O96017). The conditions noted are these: read-out: IC50 against Chk2; cited from earlier work.

Sequence of cdc2 (P06493 whole entry, species assumed): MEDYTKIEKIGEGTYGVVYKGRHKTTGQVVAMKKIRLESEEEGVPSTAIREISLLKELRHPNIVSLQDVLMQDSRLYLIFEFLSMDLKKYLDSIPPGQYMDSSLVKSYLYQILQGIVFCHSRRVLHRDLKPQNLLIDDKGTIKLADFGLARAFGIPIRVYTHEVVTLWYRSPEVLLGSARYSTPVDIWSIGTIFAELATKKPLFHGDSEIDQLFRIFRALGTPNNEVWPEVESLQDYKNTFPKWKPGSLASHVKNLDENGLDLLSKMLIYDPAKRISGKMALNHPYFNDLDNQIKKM
Sequence of cdc2 (P14635 whole entry partner, species assumed): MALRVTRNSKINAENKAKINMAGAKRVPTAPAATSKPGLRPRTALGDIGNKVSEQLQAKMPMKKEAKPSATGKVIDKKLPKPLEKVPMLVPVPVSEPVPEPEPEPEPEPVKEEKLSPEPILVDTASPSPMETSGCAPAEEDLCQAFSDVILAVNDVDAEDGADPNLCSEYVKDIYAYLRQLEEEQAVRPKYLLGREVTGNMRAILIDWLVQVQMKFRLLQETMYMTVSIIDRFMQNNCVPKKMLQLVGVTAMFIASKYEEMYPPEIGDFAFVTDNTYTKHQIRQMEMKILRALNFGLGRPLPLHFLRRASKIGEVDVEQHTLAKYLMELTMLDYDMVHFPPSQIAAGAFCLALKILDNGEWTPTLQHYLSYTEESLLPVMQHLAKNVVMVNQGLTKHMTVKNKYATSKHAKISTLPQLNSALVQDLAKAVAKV
Sequence of Chk2 (O96017 whole entry, species assumed): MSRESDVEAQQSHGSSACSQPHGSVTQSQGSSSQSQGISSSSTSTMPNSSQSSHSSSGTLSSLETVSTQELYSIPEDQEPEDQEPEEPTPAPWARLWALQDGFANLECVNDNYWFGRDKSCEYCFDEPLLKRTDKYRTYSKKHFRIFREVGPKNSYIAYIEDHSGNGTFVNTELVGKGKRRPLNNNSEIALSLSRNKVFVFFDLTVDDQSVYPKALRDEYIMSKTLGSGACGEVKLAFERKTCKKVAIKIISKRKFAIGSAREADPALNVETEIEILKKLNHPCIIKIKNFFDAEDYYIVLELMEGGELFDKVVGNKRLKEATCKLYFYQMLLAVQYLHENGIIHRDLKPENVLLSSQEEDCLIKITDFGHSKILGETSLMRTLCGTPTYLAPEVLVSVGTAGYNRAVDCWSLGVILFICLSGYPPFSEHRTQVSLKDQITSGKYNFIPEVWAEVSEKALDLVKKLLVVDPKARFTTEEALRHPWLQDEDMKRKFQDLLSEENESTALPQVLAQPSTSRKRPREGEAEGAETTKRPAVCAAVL

The term IC50 denotes the concentration that gives 50% inhibition. Regarding `O=C1NC(=O)c2c1c1c3ccccc3n3c1c1c2c2ccccc2n1C1CCC3O1` [SB-218078], the half-inhibitory concentration (IC50) is 250 nM in data set [1], 1000 nM in data set [2] and 15 nM in data set [3].
With `CN(C)CC(C)(C)COc1ccc2[nH]c(-c3cc(NC(=O)c4cnn(Cc5ccccc5)c4)c[nH]c3=O)cc2c1` [V158411], the IC50 in data set [4] was 2.5 nM; in data set [3], 3.5 nM.
